Laboratory results published in patent US20150250786A1, “PYRIMIDINE HYDROXY AMIDE COMPOUNDS AS PROTEIN DEACETYLASE INHIBITORS AND METHODS OF USE THEREOF” (THE TRUSTEES OF THE UNIVERSITY OF PENNSYLVANIA, priority 2012, published 2015).

What was measured:
mice [1] = assay: Elevated plus maze (EPM); format: in vivo, mouse; conditions: acute administration
HDAC1 = HDAC1 (Homo sapiens, UniProt Q13547); assay: HDAC enzyme assay, HDAC1; conditions: selectivity HDAC6 over HDAC1
HDAC2 = HDAC2 (Homo sapiens, UniProt Q92769); assay: HDAC enzyme assay, HDAC2; conditions: selectivity HDAC6 over HDAC2
HDAC2, sequence (Q92769 whole entry): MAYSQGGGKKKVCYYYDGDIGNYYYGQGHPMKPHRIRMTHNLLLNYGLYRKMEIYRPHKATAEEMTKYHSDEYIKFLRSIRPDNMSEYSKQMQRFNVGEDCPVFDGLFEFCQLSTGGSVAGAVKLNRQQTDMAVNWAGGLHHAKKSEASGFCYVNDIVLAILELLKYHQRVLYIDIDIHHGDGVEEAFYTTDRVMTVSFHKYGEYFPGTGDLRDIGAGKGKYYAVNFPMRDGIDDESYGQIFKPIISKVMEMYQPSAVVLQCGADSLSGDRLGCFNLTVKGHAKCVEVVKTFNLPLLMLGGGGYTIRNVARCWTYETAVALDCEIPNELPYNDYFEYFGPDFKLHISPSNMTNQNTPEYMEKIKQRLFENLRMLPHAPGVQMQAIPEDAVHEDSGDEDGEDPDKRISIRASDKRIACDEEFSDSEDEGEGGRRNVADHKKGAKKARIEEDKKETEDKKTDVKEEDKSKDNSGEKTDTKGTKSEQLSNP

HDAC3 = HDAC3 (Homo sapiens, UniProt O15379); assay: HDAC enzyme assay, HDAC3; conditions: selectivity HDAC6 over HDAC3
HDAC3, sequence (O15379 whole entry): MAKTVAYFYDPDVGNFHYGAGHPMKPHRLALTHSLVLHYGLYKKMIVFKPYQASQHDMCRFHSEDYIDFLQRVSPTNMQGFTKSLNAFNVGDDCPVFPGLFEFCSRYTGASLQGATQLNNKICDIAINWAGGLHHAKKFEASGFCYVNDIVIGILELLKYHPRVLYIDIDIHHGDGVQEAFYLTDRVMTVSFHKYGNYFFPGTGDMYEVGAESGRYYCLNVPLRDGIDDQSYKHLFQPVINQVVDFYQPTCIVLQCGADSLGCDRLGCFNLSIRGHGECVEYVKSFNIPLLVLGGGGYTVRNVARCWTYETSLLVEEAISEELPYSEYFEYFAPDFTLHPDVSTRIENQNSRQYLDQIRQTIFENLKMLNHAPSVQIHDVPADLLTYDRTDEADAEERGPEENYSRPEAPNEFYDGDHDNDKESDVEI
HDAC3, sequence (Q9Y618 395-489 partner limits assumed): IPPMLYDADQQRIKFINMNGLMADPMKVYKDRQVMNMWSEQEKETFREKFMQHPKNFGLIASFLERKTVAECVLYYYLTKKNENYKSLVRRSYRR

[2] = tested on: RN46A-B14 serotonergic cell line; assay: α-tubulin K40 acetylation in RN46A-B14 cells (Western blot); format: cell-based, rat; conditions: for acetylated (lysine 40) fraction of α-tubulin: 4 hours, TSA 0.6 μM, others 2.5 μM
Experimental: In FIG. 3, it was observed that subchronic treatment, consisting of 5 treatments at 48, 28, 24, 4 and ½ hours before sacrifice, led to greater increase in tubulin acetylation than did chronic treatment of 1 injection/day for 21 days. For cell culture, RN46B cells were treated for with 0.25, 2.5 or 25 μM drug in DMSO for 1, 4 or 24 hours as indicated. Tukey post-hoc analysis: * P=0.01 to 0.05, ** P=0.001-0.01, ***P<0.001 when compared with vehicle treatment.
Results are shown as percent change normalized to the vehicle treatment condition. The horizontal hard line depicts average and the dotted lines depict SEM of the vehicle treated wells. Representative Western blot images are presented. […] Representative Western blot images are presented. […] The drugs (5 mg/kg) were administered subchronically (at 24 h, 4 h and 30 min prior to sacrifice) to HDAC6 KO and WT littermates. The changes in tubulin acetylation were measured in tissue lysates from cortex (ctx), hippocampus (Hpc), dorsal Raphe nucleus (DRN) and cerebellum (cb). The tubulin acetylation levels in drug-treated mice are expressed as percent change of the vehicle-treated mice of the corresponding genotype. The horizontal lines depict the average tubulin acetylation±SEM in the vehicle treated mice. The representative Western blot images show the changes induced by each drug treatment in the hippocampus (left column) and dorsal raphe (right column) of WT and HDAC6 KO mice.
In contrast to the class I isoforms HDAC2 and 3, which are expressed highly and ubiquitously in the mouse brain, HDAC6 mRNA expression appears to be restricted to a small number of brain areas, with highest signal observed in DRN (FIG. 13f). […] No changes in total α-tubulin expression were detected (FIG. 14a).

[3] = tested on: RN46A-B14 serotonergic cell line; assay: Histone H3K9 acetylation in RN46A-B14 cells (Western blot); format: cell-based, rat; conditions: 4 hours
[4] = tested on: α-tubulin acetylation in mouse whole brain lysates; assay: α-tubulin acetylation in whole brain lysates after single i.p. administration; format: in vivo; conditions: compound 73 5 mg/kg, compound 101 50 mg/kg, tubastatin A 10 mg/kg, 30 min, 1 h, 4 h
[5] = tested on: α-tubulin acetylation in heart; assay: α-tubulin acetylation in heart after single systemic administration; format: in vivo, mouse; conditions: 10 mg/kg
Experimental: The changes were significant at 30 minutes (F3,13=163.4, P<0.0001), 1 hour (F3,13=163.9, P<0.0001) and 4 hours (F3,14=4.703, P=0.0179) after the administrations.

mice [6] = assay: Open-field test; format: in vivo, mouse; conditions: acute; compounds 73, 101 50 mg/kg; tubastatin A 10 mg/kg
[7] = Pharmacokinetics and brain bio-distribution in mice; format: in vivo, mouse
Experimental: […] Plasma samples were taken from all mice upon sacrifice. Brain samples were taken from the mice sacrificed at 5 and 15 minutes and 1 and 4 hours. The brain samples were homogenized in PBS and centrifuged at 14000 rpm for 5 minutes. The supernatant from the brain homogenate and the plasma samples were injected onto a LC/MS/MS for analysis. The compound level in the samples was determined by a standard curve in the appropriate matrix. Pharmacokinetic parameters were determined from the raw data by WinNonLin.

mice [8] = assay: Chronic social defeat (CSD) and social interaction test; format: in vivo, mouse; conditions: after CSD; fluoxetine 20 mg/kg, compound 73 5 mg/kg, compound 101 50 mg/kg
Experimental: Additionally, when combined with a dose of Citalopram with lower activity, these compounds seemed to have an additive effect (See FIG. 10). The dose of Citalopram chosen for this experiment was based on literature stating 2 mg/kg should be subactive, but this dose was found still showing an effect. Mice then underwent chronic social defeat stress, in which the mice are exposed to an aggressive resident mouse for 5 minutes daily for 10 days and are then tested on the 11th day in the social interaction test. Mice treated with vehicle for 20 total days, beginning 10 days before the defeat, show reduced time spent in the interaction zone when a target mouse is present when compared with control mice. […] The percent of mice found to be resilient, defined as spending more time in the interaction zone than the lowest control (i.e. ˜52 s), is higher in HDAC6 inhibitor groups. All behavior testing done using NIH Swiss mice, age 6-10 weeks. Tukey post-hoc analysis: * P=0.01 to 0.05, ** P=0.001-0.01, ***P<0.001 compared with vehicle treated mice.
The effects were observed 30 minutes after acute 50 mg/kg i.p. injection, but not for the lower dose (5 mg/kg). Combination of subactive doses of the HDAC6 selective inhibitors (5 mg/kg) and citalopram (0.5 mg/kg) produced robust potentiation of anti-immobility activity (n=8-29 per condition). […] No difference was observed between HDAC6 WT and KO when treated with the vehicle (n=6-15 per condition). FIG. 16c is a timeline showing treatment period, social defeat and social interaction (SI) testing.
A pro-resilient phenotype in the mouse CSD paradigm after serotonin-selective KO of HDAC6 was previously reported (Espallergues et al, 2012). Whether a chronic pharmacological inhibition of HDAC6 can replicate that phenotype is studied. […] On day 21, 24 h after the last injection, the mice were tested in the social interaction test. […] Significant effects were also observed when data was evaluated in terms of proportion of mice reaching criterion for resiliency.

[9] = tested on: histone H3 lysine 9 acetylation; assay: Histone H3K9 acetylation in vivo (Western blot, ChIP); parameters: species or system mouse; conditions: hippocampus; repeated i.p.; compound 73 5 mg/kg, sodium butyrate 1.2 g/kg

HDAC1, sequence (Q13547 whole entry): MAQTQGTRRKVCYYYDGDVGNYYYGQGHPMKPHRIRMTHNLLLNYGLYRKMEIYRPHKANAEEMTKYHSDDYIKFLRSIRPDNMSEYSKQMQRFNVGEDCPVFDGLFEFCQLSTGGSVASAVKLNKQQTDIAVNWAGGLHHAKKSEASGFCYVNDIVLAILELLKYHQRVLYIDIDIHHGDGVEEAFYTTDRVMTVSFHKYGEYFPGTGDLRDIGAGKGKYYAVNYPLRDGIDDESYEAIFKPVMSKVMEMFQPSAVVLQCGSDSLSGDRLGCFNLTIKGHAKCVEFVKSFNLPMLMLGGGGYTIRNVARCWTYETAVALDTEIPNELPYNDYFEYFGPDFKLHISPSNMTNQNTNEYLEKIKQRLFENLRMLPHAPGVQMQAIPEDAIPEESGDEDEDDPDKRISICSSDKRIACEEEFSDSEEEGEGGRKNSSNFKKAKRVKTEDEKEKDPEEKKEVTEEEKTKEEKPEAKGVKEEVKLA

## CNC1=Nc2ccc(Cl)cc2C(c2ccccc2)=[N+]([O-])C1 [CDP, reference compound]
Mice [1]
  behavioral changes / time in the open arms of the maze: dramatically increased

## O=C(NO)c1cnc(NC2(c3ccc(F)cc3)CC2)nc1 [Compound 81]
HDAC1
  HDAC1 fold versus HDAC6 (in brackets): (18.3x)
HDAC2
  HDAC2 fold versus HDAC6 (in brackets): (30.2x)
HDAC3
  HDAC3 fold versus HDAC6 (in brackets): (46.4x)

## O=C(NO)c1cnc(NC2(c3ccccc3)CCCCC2)nc1 [Compound 84]
HDAC1
  HDAC1 fold versus HDAC6 (in brackets): (302.2x)
HDAC2
  HDAC2 fold versus HDAC6 (in brackets): (403.4x)
HDAC3
  HDAC3 fold versus HDAC6 (in brackets): (613x)

## O=C(NO)c1cnc(NC2(c3ccccc3)CCCC2)nc1 [Compound 88]
HDAC1
  HDAC1 fold versus HDAC6 (in brackets): (215.2x)
HDAC2
  HDAC2 fold versus HDAC6 (in brackets): (296.1x)
HDAC3
  HDAC3 fold versus HDAC6 (in brackets): (679.1x)

## O=C(NO)c1cnc(NC2(c3ccccc3Cl)CC2)nc1 [Compound 90]
HDAC1
  HDAC1 fold versus HDAC6 (in brackets): (19.9x)
HDAC2
  HDAC2 fold versus HDAC6 (in brackets): (26.2x)
HDAC3
  HDAC3 fold versus HDAC6 (in brackets): (30.2x)

## O=C(NO)c1cnc(NC2(c3ccccc3C(F)(F)F)CC2)nc1 [Compound 91]
HDAC1
  HDAC1 fold versus HDAC6 (in brackets): (72.3x)
HDAC2
  HDAC2 fold versus HDAC6 (in brackets): (130.2x)
HDAC3
  HDAC3 fold versus HDAC6 (in brackets): (169.4x)

## Cc1ccc(C2(Nc3ncc(C(=O)NO)cn3)CC2)cc1 [Compound 93]
HDAC1
  HDAC1 fold versus HDAC6 (in brackets): (25.9x)
HDAC2
  HDAC2 fold versus HDAC6 (in brackets): (34.7x)
HDAC3
  HDAC3 fold versus HDAC6 (in brackets): (51x)

## COc1ccc(C2(Nc3ncc(C(=O)NO)cn3)CC2)cc1 [Compound 97]
HDAC1
  HDAC1 fold versus HDAC6 (in brackets): (8.3x)
HDAC2
  HDAC2 fold versus HDAC6 (in brackets): (12.1x)
HDAC3
  HDAC3 fold versus HDAC6 (in brackets): (16.4x)

## O=C(NO)c1cnc(NC2(c3ccc(F)cc3)CCCCC2)nc1 [Compound 100]
HDAC1
  HDAC1 fold versus HDAC6 (in brackets): (339.9x)
HDAC2
  HDAC2 fold versus HDAC6 (in brackets): (504.7x)
HDAC3
  HDAC3 fold versus HDAC6 (in brackets): (1428.4x)

## CC(/C=C/C(=O)NO)=C\[C@@H](C)C(=O)c1ccc(N(C)C)cc1 [TSA, trichostatin A, reference compound]
[2]
  acetylated (lysine 40) fraction of α-tubulin: increases
[3]; TSA 0.6 μM
  increase in acetylation of histone H3 at lysine 9: 94%

## CN1CCc2c(c3ccccc3n2Cc2ccc(C(=O)NO)cc2)C1 [Tubastatin A, reference compound]
[2]
  increase in α-tubulin acetylation in tissue culture: about 400%
  acetylated (lysine 40) fraction of α-tubulin: increases
[3]; 2.5 μM
  change in histone H3K9 acetylation: no significant change
[4]
  α-tubulin acetylation in whole brain lysates: did not significantly change
[5]
  increase of α-tubulin acetylation in heart: 268%
Mice [6]
  exploratory activity in novel open-field arena: did not exhibit changes
[7]; 5 mg/kg
  30 min plasma concentration (ng/ml) - 5 mg/kg: 278 ng/mL
[7]; mice, acute i.p. dosing
  Cmax: 496 ng/mL
  T½ plasma: 2 h
[7]; mouse, in vivo
  plasmatic half-life: 2 h

## CNCCC(Oc1ccc(C(F)(F)F)cc1)c1ccccc1 (stereo not drawn) [fluoxetine, reference compound]
Mice [8]
  percentage of resilient mice: 60%

## CCCC(=O)[O-].[Na+] [sodium butyrate, reference compound]
[9]
  histone H3K9 acetylation enrichment at promoter DNA (cFOS, BDNF promoter 4), ChIP: increases in enrichment
